The values that follow come from PubChem BioAssay AID328 (DTP/NCI, 2004).

The subject of the assay is BDF1 mice, P388 leukemia ip, median survival T/C. Kind of assay: NCI In Vivo Anticancer Drug Screen. Data for tumor model P388 Leukemia (intraperitoneal) in B6D2F1 (BDF1) mice. As to conditions: endpoint: median survival time, higher = longer survival. As for the experimental part:
The antitumor activity of compounds was measured in mice bearing transplantable tumors. Survival or tumor size were measured and the results are expressed as the measurement made in the treated group (T) divided by the measurement made in the vehicle treated control group (C). The tumor model used in this assay is P388 Leukemia (intraperitoneal) in B6D2F1 (BDF1) mice

The mark [1] stands for this setting: dose: 25.0 mg/kg/injection, schedule: Q01DX009 (ip), vehicle: saline with Tween-80.
The mark [2] stands for this setting: dose: 50.0 mg/kg/injection, schedule: Q01DX009 (ip), vehicle: saline with Tween-80.
[3] abbreviates: dose: 100.0 mg/kg/injection, schedule: Q01DX009 (ip), vehicle: saline with Tween-80.
[4] abbreviates: dose: 200.0 mg/kg/injection, schedule: Q01DX009 (ip), vehicle: saline with Tween-80.
Where [5] appears, read: dose: 50.0 mg/kg/injection, schedule: Q01DX005 (ip), vehicle: saline with Tween-80.
Where [6] appears, read: dose: 100.0 mg/kg/injection, schedule: Q01DX005 (ip), vehicle: saline with Tween-80.
The mark [7] stands for this setting: dose: 200.0 mg/kg/injection, schedule: Q01DX005 (ip), vehicle: saline with Tween-80.
[8] abbreviates: dose: 100.0 mg/kg/injection, schedule: Q04DX003 (ip), vehicle: Klucel (hydroxypropylcellulose) (HPC).

Several values for one entry are separate records, joined by “and”; a condition that tells them apart may be missing. Identical values can stand only once. Toxic doses and inconclusive results are not listed.

With `COc1cc2c(cc1OC)C(NC(C)=O)N(C)c1c-2ccc2cc3c(cc12)OCO3` (centres undefined), the T/C is 168 % of control (dose: 40.0 mg/kg/injection, schedule: Q01DX009 (ip), vehicle: saline); 104 % of control (dose: 80.0 mg/kg/injection, schedule: Q01DX009 (ip), vehicle: saline); 100 % of control (dose: 120.0 mg/kg/injection, schedule: Q01DX009 (ip), vehicle: saline).

Turning to `C(=C\c1nc2ccccc2[nH]1)/c1nc2ccccc2[nH]1`, the T/C is 100 % of control under setting [1], 100 % of control under setting [2], 92 % of control under setting [3] and 98 % of control under setting [4].

Take `IC1CCCOC1[n+]1ccccc1` (centres undefined): the T/C (dose: 6.0 mg/kg/injection, schedule: Q01DX009 (ip), vehicle: saline with Tween-80) was 104 % of control; the T/C (dose: 12.0 mg/kg/injection, schedule: Q01DX009 (ip), vehicle: saline with Tween-80) was 109 % of control; the T/C (dose: 12.5 mg/kg/injection, schedule: Q04DX003 (ip), vehicle: saline with Tween-80) is 96 % of control; the T/C under setting [1] was 104 % of control; the T/C (dose: 25.0 mg/kg/injection, schedule: Q04DX003 (ip), vehicle: saline with Tween-80) was 107 % of control.

`COc1ccc2c(c1OC)CN1CCc3cc4c(cc3C1=C2)OCO4`: the T/C is 102 % of control under setting [5], 90 % of control under setting [6] and 91 % of control under setting [7].

As for `O=C(Nc1cc(Cl)ccc1Cl)c1ccc(C(=O)Nc2cc(Cl)ccc2Cl)cc1`, the T/C was 94 % of control under setting [3]; 91 % of control under setting [4]; 110 % of control (dose: 400.0 mg/kg/injection, schedule: Q01DX009 (ip), vehicle: saline with Tween-80).

Turning to `CC(CS(=O)(=O)O)NC(CO)(CO)CO` (centres undefined), the T/C (dose: 100.0 mg/kg/injection, schedule: Q01DX009 (ip), vehicle: saline) was 87 % of control; the T/C (dose: 100.0 mg/kg/injection, schedule: Q04DX003 (ip), vehicle: saline) was 100 % of control; the T/C (dose: 200.0 mg/kg/injection, schedule: Q04DX003 (ip), vehicle: saline) was 109 % of control; the T/C (dose: 400.0 mg/kg/injection, schedule: Q01DX009 (ip), vehicle: saline) is 100 % of control; the T/C (dose: 400.0 mg/kg/injection, schedule: Q04DX003 (ip), vehicle: saline) is 90 % of control.

Turning to `CC(C)C[CH2][Pb]([Cl])([CH2]CC(C)C)[CH2]CC(C)C`, the T/C is, setting by setting: (dose: 0.12 mg/kg/injection, schedule: Q01DX009 (ip), vehicle: Klucel (hydroxypropylcellulose) (HPC)) 104 % of control; (dose: 0.25 mg/kg/injection, schedule: Q01DX009 (ip), vehicle: Klucel (hydroxypropylcellulose) (HPC)) 106 % of control; (dose: 0.5 mg/kg/injection, schedule: Q01DX009 (ip), vehicle: Klucel (hydroxypropylcellulose) (HPC)) 109 % of control; (dose: 1.0 mg/kg/injection, schedule: Q01DX009 (ip), vehicle: Klucel (hydroxypropylcellulose) (HPC)) 120 % of control.

On to `COc1ccc2c(c1)CCC1CC(=O)C=C21` (centres undefined), for which the T/C by setting is: (dose: 100.0 mg/kg/injection, schedule: Q01DX001 (ip), vehicle: saline) 105 % of control; (dose: 200.0 mg/kg/injection, schedule: Q01DX001 (ip), vehicle: saline) 90 % of control; (dose: 400.0 mg/kg/injection, schedule: Q01DX001 (ip), vehicle: saline) 100 % of control.

`CCCCCCCCNCCCCCCCC`: the T/C was 108 % of control and 113 % of control (dose: 9.0 mg/kg/injection, schedule: Q01DX009 (ip), vehicle: gum acacia); 100 % of control (dose: 9.0 mg/kg/injection, schedule: Q04DX003 (ip), vehicle: gum acacia); 95 % of control and 108 % of control (dose: 18.0 mg/kg/injection, schedule: Q01DX009 (ip), vehicle: gum acacia); 95 % of control (dose: 18.0 mg/kg/injection, schedule: Q04DX003 (ip), vehicle: gum acacia); 104 % of control and 116 % of control (dose: 37.0 mg/kg/injection, schedule: Q01DX009 (ip), vehicle: gum acacia); 100 % of control (dose: 37.0 mg/kg/injection, schedule: Q04DX003 (ip), vehicle: gum acacia).

In the case of `O=C(O)/C(Cl)=C(Cl)\C=N\Nc1ccccc1`, where the note is “dose: 200.0 mg/kg/injection, schedule: Q04DX002 (ip), vehicle: saline with Tween-80”, the T/C was 98 % of control.

Consider `CCCCCC(CN(C)C)C(=O)/C=C\c1ccc(Cl)cc1Cl` (centres undefined), for which the T/C (dose: 8.0 mg/kg/injection, schedule: Q01DX009 (ip), vehicle: saline) was 122 % of control; the T/C (dose: 12.0 mg/kg/injection, schedule: Q01DX009 (ip), vehicle: saline) was 122 % of control; the T/C (dose: 18.0 mg/kg/injection, schedule: Q01DX009 (ip), vehicle: saline) is 122 % of control.

As to `CN(C)C(=S)Sc1ccc([N+](=O)[O-])cc1[N+](=O)[O-]`, the T/C was 100 % of control (dose: 100.0 mg/kg/injection, schedule: Q01DX001 (ip), vehicle: Klucel (hydroxypropylcellulose) (HPC)); 100 % of control under setting [8]; 100 % of control (dose: 200.0 mg/kg/injection, schedule: Q01DX001 (ip), vehicle: Klucel (hydroxypropylcellulose) (HPC)); 104 % of control (dose: 200.0 mg/kg/injection, schedule: Q04DX003 (ip), vehicle: Klucel (hydroxypropylcellulose) (HPC)); 100 % of control (dose: 400.0 mg/kg/injection, schedule: Q01DX001 (ip), vehicle: Klucel (hydroxypropylcellulose) (HPC)); 108 % of control (dose: 400.0 mg/kg/injection, schedule: Q04DX003 (ip), vehicle: Klucel (hydroxypropylcellulose) (HPC)).

Take `CCC(C)(OC(C)=O)C(=O)O[C@H]1C(=O)O[C@@H]2C[C@H]3C(C)=CC(=O)[C@@H](O)[C@]3(C)[C@H]3[C@@]4(O)OC[C@]32[C@@H]1[C@@H](C)[C@H]4O` (some centres undefined): the T/C reads like this: (dose: 0.25 mg/kg/injection, schedule: Q01DX009 (ip), vehicle: saline) 119 % of control; (dose: 1.25 mg/kg/injection, schedule: Q01DX009 (ip), vehicle: saline) 157 % of control; (dose: 2.0 mg/kg/injection, schedule: Q01DX009 (ip), vehicle: saline) 121 % of control; (dose: 5.0 mg/kg/injection, schedule: Q01DX009 (ip), vehicle: saline) 123 % of control.

Consider `COC(=O)c1c([N+](=O)[O-])cccc1[N+](=O)[O-]`, for which the T/C is, setting by setting: under setting [5], 97 % of control; under setting [6], 97 % of control; under setting [7], 94 % of control.

Turning to `CCOC(=O)c1ccc(C(=O)OCC)c(Cl)n1`, the T/C is 112 % of control (dose: 25.0 mg/kg/injection, schedule: Q01DX009 (ip), vehicle: Klucel (hydroxypropylcellulose) (HPC)); 95 % of control (dose: 25.0 mg/kg/injection, schedule: Q04DX003 (ip), vehicle: Klucel (hydroxypropylcellulose) (HPC)); 95 % of control (dose: 50.0 mg/kg/injection, schedule: Q01DX009 (ip), vehicle: Klucel (hydroxypropylcellulose) (HPC)); 100 % of control (dose: 50.0 mg/kg/injection, schedule: Q04DX003 (ip), vehicle: Klucel (hydroxypropylcellulose) (HPC)); 87 % of control (dose: 100.0 mg/kg/injection, schedule: Q01DX009 (ip), vehicle: Klucel (hydroxypropylcellulose) (HPC)); 86 % of control and 91 % of control under setting [8].

Consider `C=C1C(=O)OC2/C=C(\C)CC/C=C(/C)CC(O)C12` (centres undefined), for which the T/C (dose: 5.0 mg/kg/injection, schedule: Q04DX003 (ip), vehicle: saline with Tween-80) is 98 % of control; the T/C (dose: 10.0 mg/kg/injection, schedule: Q04DX003 (ip), vehicle: saline with Tween-80) is 114 % of control; the T/C (dose: 20.0 mg/kg/injection, schedule: Q04DX003 (ip), vehicle: saline with Tween-80) is 98 % of control.

Consider `CCCCCCC(=O)CC(SCC)c1ccc(Cl)cc1Cl` (centres undefined), for which the T/C is, setting by setting: under setting [2], 98 % of control; under setting [3], 104 % of control; under setting [4], 104 % of control.

In the case of `COc1cc(Cl)ccc1C`, the T/C runs as follows: under setting [2], 100 % of control; (dose: 50.0 mg/kg/injection, schedule: Q04DX003 (ip), vehicle: saline with Tween-80) 104 % of control; (dose: 88.0 mg/kg/injection, schedule: Q01DX009 (ip), vehicle: saline with Tween-80) 108 % of control and 114 % of control; under setting [3], 120 % of control; (dose: 100.0 mg/kg/injection, schedule: Q04DX003 (ip), vehicle: saline with Tween-80) 113 % of control; (dose: 132.0 mg/kg/injection, schedule: Q01DX009 (ip), vehicle: saline with Tween-80) 108 % of control. Moreover, the T/C reads like this: under setting [4], 120 % of control and 123 % of control; (dose: 200.0 mg/kg/injection, schedule: Q04DX003 (ip), vehicle: saline with Tween-80) 118 % of control; (dose: 300.0 mg/kg/injection, schedule: Q01DX009 (ip), vehicle: saline with Tween-80) 123 % of control.
